Results on one compound are retold here after paper PMC11903733 (Frontiers in Pharmacology, 2025).

The target in the experiment is T1, LSD2 (Homo sapiens, UniProt Q8NB78).
T1 construct: full-length LSD2; by word order LSD2 from ActiveMotif
T1 sequence (Q8NB78 1-822): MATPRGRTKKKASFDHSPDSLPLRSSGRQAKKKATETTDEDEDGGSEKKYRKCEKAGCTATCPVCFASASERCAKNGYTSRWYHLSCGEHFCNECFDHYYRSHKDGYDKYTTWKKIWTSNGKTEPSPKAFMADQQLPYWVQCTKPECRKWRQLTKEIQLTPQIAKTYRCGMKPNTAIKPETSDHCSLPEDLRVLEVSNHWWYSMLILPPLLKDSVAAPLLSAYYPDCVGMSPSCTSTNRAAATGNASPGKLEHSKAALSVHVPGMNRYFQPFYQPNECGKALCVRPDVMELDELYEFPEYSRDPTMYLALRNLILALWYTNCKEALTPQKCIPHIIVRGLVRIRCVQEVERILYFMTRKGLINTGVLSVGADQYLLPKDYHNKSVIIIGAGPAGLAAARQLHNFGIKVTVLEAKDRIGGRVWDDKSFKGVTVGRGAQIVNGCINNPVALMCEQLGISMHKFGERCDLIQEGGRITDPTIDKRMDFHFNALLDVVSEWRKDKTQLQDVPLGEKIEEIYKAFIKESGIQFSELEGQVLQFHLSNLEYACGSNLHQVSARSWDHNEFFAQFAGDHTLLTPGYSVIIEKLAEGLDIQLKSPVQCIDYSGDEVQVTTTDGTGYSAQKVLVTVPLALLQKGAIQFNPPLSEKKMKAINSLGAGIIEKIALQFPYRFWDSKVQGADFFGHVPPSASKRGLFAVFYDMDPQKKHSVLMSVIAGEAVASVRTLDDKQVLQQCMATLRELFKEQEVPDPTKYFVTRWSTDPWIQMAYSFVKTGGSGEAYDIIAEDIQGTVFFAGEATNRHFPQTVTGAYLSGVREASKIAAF
Put plainly: Lance Ultra demethylase TR-FRET enzyme inhibition assay, LSD2. As to conditions: full-length LSD2 172 nM, Bio-H3K4me2 substrate, 1 h, mean ± SD, n = 3. Format: biochemical. From the text: These were utilized in both in vitro and in vivo assays. Iscove’s Modified Dulbecco’s Medium (IMDM), Roswell Park Memorial Institute (RPMI)-1640 medium, fetal bovine serum (FBS) and penicillin/streptomycin were purchased from Gibco (Grand Island, New Nork, United States). Recombinant human LSD1 (172–852 aa) and full-length LSD2 were obtained from Sino Biological Inc. and ActiveMotif.
The inhibitory effects of the tested compounds on LSD1 and LSD2 enzymes were methodically assessed using the Lance Ultra LSD1 Histone H3-Lysine 4 Demethylase Assay Kit from PerkinElmer, adhering to previously published methodologies ([Li et al., 2022]). In brief, the reaction was initiated by adding 4 μL of enzyme solution, with concentrations specified at 2 nM for LSD1 or 172 nM for LSD2, 4 μL of substrate solution [2.5 μM Bio-H3K4me2 ([…])], and 2 μL of tested compound to a Tris buffer (50 mM Tris-HCl, 50 mM NaCl, 0.01% Tween 20, 1 mM DTT, 10 μM FAD, 10% glycerol, pH 9.0) at room temperature and incubated for 1 h. Following the incubation, 5 μL of a detection mixture, comprising an Eu-labeled H3K4me0 antibody and ULight Streptavidin, was added to the reaction. The fluorescence intensity was then measured employing TR-FRET mode with excitation and emission wavelengths set at 320 nm and 665 nm, respectively, utilizing the Envision (PerkinElmer) system. Each experiment was performed in triplicate.

Where only a bound is given, the exact number is not on record here.

The compound `O=S(=O)(c1ccc(C(O)CO)c(C(F)(F)F)c1)N1CCc2cc(C3CC3NCC3CCNCC3)ccc21` (stereo not shown) [LTM-1] gave an IC50 of over 5 µM.
